Tested on: 422866-222-R5-J1-PDC complex spheroid viability
Experiment: Anticancer human tumor 422866-222-R5-J1-PDC patient-derived pancreatic adenocarcinoma cell line growth inhibition [POLQ]
Conditions: for IC50: curve of first compound; for viability, T/C: stronger effect = lower value
Outline: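 Growth inhibition in 3D: complex spheroids (tumor PDC, HUVEC, MSC) treated with POLQ inhibitor combinations; where Cmax unknown, highest tested concentration 10 microM, except SN-38 at 1 microM.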

[1] = second compound 0.0316 µM, first compound 0.00316 µM
[2] = second compound 0.0316 µM, first compound 0.01 µM
[3] = second compound 0.0316 µM, first compound 0.0316 µM
[4] = second compound 0.0316 µM, first compound 0.1 µM
[5] = second compound 0.1 µM, first compound 0.00316 µM
[6] = second compound 0.1 µM, first compound 0.01 µM
[7] = second compound 0.1 µM, first compound 0.0316 µM
[8] = second compound 0.1 µM, first compound 0.1 µM
[9] = second compound 0.316 µM, first compound 0.00316 µM
[10] = second compound 0.316 µM, first compound 0.01 µM
[11] = second compound 0.316 µM, first compound 0.0316 µM
[12] = second compound 0.316 µM, first compound 0.1 µM
[13] = second compound 1 µM, first compound 0.00316 µM
[14] = second compound 1 µM, first compound 0.01 µM
[15] = second compound 1 µM, first compound 0.0316 µM
[16] = second compound 1 µM, first compound 0.1 µM
[17] = second compound 3.16 µM, first compound 0.00316 µM
[18] = second compound 3.16 µM, first compound 0.01 µM
[19] = second compound 3.16 µM, first compound 0.0316 µM
[20] = second compound 3.16 µM, first compound 0.1 µM
[21] = second compound 10 µM, first compound 0.00316 µM
[22] = second compound 10 µM, first compound 0.01 µM
[23] = second compound 10 µM, first compound 0.0316 µM
[24] = second compound 10 µM, first compound 0.1 µM
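Further: spheroids exposed to compounds for one week before readout.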
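Wherever viability, T/C is given: percent of DMSO vehicle wells luminescence so 100% = untreated viability.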

`C=CCn1c(=O)c2cnc(Nc3ccc(N4CCN(C)CC4)cc3)nc2n1-c1cccc(C(C)(C)O)n1` + COC1C(OC(N)=O)C(O)C(Oc2ccc3c(O)c(NC(=O)c4ccc(O)c(CC=C(C)C)c4)c(=O)oc3c2C)OC1(C)C was tested. Which IC50 (second compound 0.0316 µM) did it give?
Its IC50 is 418 nM.

And the IC50 (second compound 0.1 µM)?
Its IC50 is 304 nM.

And the IC50 (second compound 0.316 µM)?
The IC50 was 493 nM.

And the IC50 (second compound 1 µM)?
The IC50 was 471 nM.

And the IC50 (second compound 3.16 µM)?
The IC50 was 538 nM.

And the IC50 (second compound 10 µM)?
Its IC50 is 356 nM.

And the viability, T/C [1]?
Its viability, T/C is 91.1%.

What about the viability, T/C [2] of the same compound?
The viability, T/C was 106%.

And the viability, T/C [3]?
The viability, T/C was 96.3%.

And the viability, T/C [4]?
Its viability, T/C is 93.2%.

And the viability, T/C (second compound 0.0316 µM, first compound 0.316 µM)?
The viability, T/C was 54.3%.

And the viability, T/C (second compound 0.0316 µM, first compound 1 µM)?
The viability, T/C was 36.6%.

And the viability, T/C [5]?
Its viability, T/C is 98.8%.

And the viability, T/C [6]?
The viability, T/C was 105%.

What about the viability, T/C [7] of the same compound?
Its viability, T/C is 86.2%.

What about the viability, T/C [8] of the same compound?
Its viability, T/C is 79.4%.

What about the viability, T/C (second compound 0.1 µM, first compound 0.316 µM) of the same compound?
Its viability, T/C is 46.5%.

And the viability, T/C (second compound 0.1 µM, first compound 1 µM)?
Its viability, T/C is 34.5%.

What about the viability, T/C [9] of the same compound?
Its viability, T/C is 97.4%.

And the viability, T/C [10]?
The viability, T/C was 101%.

What about the viability, T/C [11] of the same compound?
The viability, T/C was 103%.

What about the viability, T/C [12] of the same compound?
Its viability, T/C is 84.4%.

And the viability, T/C (second compound 0.316 µM, first compound 0.316 µM)?
The viability, T/C was 59.1%.

And the viability, T/C (second compound 0.316 µM, first compound 1 µM)?
The viability, T/C was 36.6%.

What about the viability, T/C [13] of the same compound?
The viability, T/C was 94.8%.

What about the viability, T/C [14] of the same compound?
Its viability, T/C is 105%.

What about the viability, T/C [15] of the same compound?
The viability, T/C was 93.8%.

What about the viability, T/C [16] of the same compound?
Its viability, T/C is 89.5%.

What about the viability, T/C (second compound 1 µM, first compound 0.316 µM) of the same compound?
Its viability, T/C is 58%.

What about the viability, T/C (second compound 1 µM, first compound 1 µM) of the same compound?
The viability, T/C was 34.6%.

And the viability, T/C [17]?
Its viability, T/C is 96.7%.

What about the viability, T/C [18] of the same compound?
The viability, T/C was 100%.

And the viability, T/C [19]?
The viability, T/C was 91.5%.

And the viability, T/C [20]?
The viability, T/C was 79%.

And the viability, T/C (second compound 3.16 µM, first compound 0.316 µM)?
The viability, T/C was 59.1%.

What about the viability, T/C (second compound 3.16 µM, first compound 1 µM) of the same compound?
Its viability, T/C is 39.7%.

And the viability, T/C [21]?
Its viability, T/C is 95.7%.

And the viability, T/C [22]?
Its viability, T/C is 84.3%.

What about the viability, T/C [23] of the same compound?
The viability, T/C was 98.2%.

And the viability, T/C [24]?
Its viability, T/C is 79.9%.

And the viability, T/C (second compound 10 µM, first compound 0.316 µM)?
The viability, T/C was 51.9%.

What about the viability, T/C (second compound 10 µM, first compound 1 µM) of the same compound?
The viability, T/C was 38.9%.

How did the IC50 (second compound 0.0316 µM) turn out when `CC[C@@]1(O)C(=O)OCc2c1cc1n(c2=O)Cc2cc3c(CN(C)C)c(O)ccc3nc2-1` + COC1C(OC(N)=O)C(O)C(Oc2ccc3c(O)c(NC(=O)c4ccc(O)c(CC=C(C)C)c4)c(=O)oc3c2C)OC1(C)C was run?
The IC50 was 22.9 nM.

What about the IC50 (second compound 0.1 µM) of the same compound?
The IC50 was 21.6 nM.

What about the IC50 (second compound 0.316 µM) of the same compound?
The IC50 was 23.3 nM.

And the IC50 (second compound 1 µM)?
Its IC50 is 20.7 nM.

What about the IC50 (second compound 3.16 µM) of the same compound?
Its IC50 is 26 nM.

What about the IC50 (second compound 10 µM) of the same compound?
Its IC50 is 22.4 nM.

And the viability, T/C (second compound 0.0316 µM, first compound 0.000316 µM)?
Its viability, T/C is 105%.

And the viability, T/C (second compound 0.0316 µM, first compound 0.001 µM)?
Its viability, T/C is 92.5%.

And the viability, T/C [1]?
The viability, T/C was 96.7%.

What about the viability, T/C [2] of the same compound?
The viability, T/C was 77%.

And the viability, T/C [3]?
The viability, T/C was 39.2%.

What about the viability, T/C [4] of the same compound?
The viability, T/C was 32.7%.

And the viability, T/C (second compound 0.1 µM, first compound 0.000316 µM)?
The viability, T/C was 92.1%.

What about the viability, T/C (second compound 0.1 µM, first compound 0.001 µM) of the same compound?
Its viability, T/C is 96.3%.

And the viability, T/C [5]?
The viability, T/C was 99.4%.

What about the viability, T/C [6] of the same compound?
The viability, T/C was 77.8%.

And the viability, T/C [7]?
Its viability, T/C is 32.3%.

And the viability, T/C [8]?
The viability, T/C was 40.1%.

What about the viability, T/C (second compound 0.316 µM, first compound 0.000316 µM) of the same compound?
The viability, T/C was 113%.

And the viability, T/C (second compound 0.316 µM, first compound 0.001 µM)?
The viability, T/C was 97.9%.

What about the viability, T/C [9] of the same compound?
The viability, T/C was 85.4%.

What about the viability, T/C [10] of the same compound?
Its viability, T/C is 69.1%.

And the viability, T/C [11]?
The viability, T/C was 37.3%.

What about the viability, T/C [12] of the same compound?
Its viability, T/C is 39.4%.

And the viability, T/C (second compound 1 µM, first compound 0.000316 µM)?
Its viability, T/C is 106%.

And the viability, T/C (second compound 1 µM, first compound 0.001 µM)?
The viability, T/C was 92.3%.

What about the viability, T/C [13] of the same compound?
The viability, T/C was 92%.

And the viability, T/C [14]?
Its viability, T/C is 61.8%.

What about the viability, T/C [15] of the same compound?
Its viability, T/C is 43.1%.

What about the viability, T/C [16] of the same compound?
The viability, T/C was 35.6%.

What about the viability, T/C (second compound 3.16 µM, first compound 0.000316 µM) of the same compound?
Its viability, T/C is 96.4%.

What about the viability, T/C (second compound 3.16 µM, first compound 0.001 µM) of the same compound?
Its viability, T/C is 105%.

And the viability, T/C [17]?
The viability, T/C was 90.9%.

And the viability, T/C [18]?
The viability, T/C was 71.5%.

What about the viability, T/C [19] of the same compound?
The viability, T/C was 45.3%.

And the viability, T/C [20]?
Its viability, T/C is 37.8%.

And the viability, T/C (second compound 10 µM, first compound 0.000316 µM)?
Its viability, T/C is 93.8%.

And the viability, T/C (second compound 10 µM, first compound 0.001 µM)?
The viability, T/C was 95.2%.

What about the viability, T/C [21] of the same compound?
The viability, T/C was 83.2%.

What about the viability, T/C [22] of the same compound?
Its viability, T/C is 71.6%.

What about the viability, T/C [23] of the same compound?
Its viability, T/C is 39.8%.

What about the viability, T/C [24] of the same compound?
Its viability, T/C is 30.8%.

From PubChem BioAssay AID1963844 (Molecular Pharmacology Branch, DTP, NCI, 2024)
